Read-outs that look alike come from different tables or passages of the source.
How the values were obtained:
[1] = molecular target: T1, ERβ (Homo sapiens, UniProt Q92731); test: ERE-dependent luciferase gene transcription in HEK:ERβ cells; type: cell-based; set-up: expressed in transfected cells; host or cells: HEK-293 (HEK:ERβ clone, with pERE-tk-Luciferase); settings: for activation at 1 µM: read-out: Induction of luciferase gene transcription through ERβ, HEK:ERβ cells, Agonism at 1μΜ (% of 0.1nM E2); for ERβ-dependent gene transcription agonist effect compared to the effect of 0.1 nM estradiol: isoflavonoids 1 μM, statistically significant effects
Protocol: (§1) Assessment of ER/ERE-dependent luciferase gene transcription in MCF-7:D5L (express ERα) and HEK:ERβ cells (express ERβ) and determination of ER transcriptional agonism was carried as already described. Briefly, the cells were plated in 96-well plates at a density of 12,000 cells per well in phenol-red-free MEM (MCF-7:D5L cells) or phenol-red-free DMEM (HEK:ERβ cells) supplemented with 1 μg/mL insulin and 5% DCC-FBS. […] The AUC of the isoflavonoids of each group were then expressed as % of the AUC of the respective archetypal isoflavone. Since AUC data combine the efficacy as well as the potency of cell response into a single parameter, the %AUC data were considered here as a more reliable measure of relative ER/ERE-dependent luciferase expression of the test compounds.

[2] = molecular target: T2, ERα (Homo sapiens, UniProt P03372); set-up: purchased Invitrogen; settings: cited from earlier work
T2 sequence (P03372 1-595): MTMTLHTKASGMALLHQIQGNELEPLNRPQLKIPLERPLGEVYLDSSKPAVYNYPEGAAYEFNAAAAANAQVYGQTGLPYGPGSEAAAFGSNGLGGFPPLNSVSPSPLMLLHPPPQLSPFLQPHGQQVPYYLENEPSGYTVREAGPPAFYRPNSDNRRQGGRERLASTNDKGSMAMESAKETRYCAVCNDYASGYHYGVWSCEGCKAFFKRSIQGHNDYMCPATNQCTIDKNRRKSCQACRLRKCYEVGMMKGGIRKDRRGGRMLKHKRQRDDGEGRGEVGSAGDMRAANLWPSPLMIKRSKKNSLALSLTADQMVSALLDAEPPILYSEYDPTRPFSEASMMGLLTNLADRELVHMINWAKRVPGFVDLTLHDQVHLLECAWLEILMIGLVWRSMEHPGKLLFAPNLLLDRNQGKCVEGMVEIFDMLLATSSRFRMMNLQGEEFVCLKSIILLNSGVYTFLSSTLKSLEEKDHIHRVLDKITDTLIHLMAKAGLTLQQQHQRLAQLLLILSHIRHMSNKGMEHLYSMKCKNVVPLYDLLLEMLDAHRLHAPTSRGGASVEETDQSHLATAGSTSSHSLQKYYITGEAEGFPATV

[3] = molecular target: T1, ERβ; set-up: purchased Invitrogen; settings: cited from earlier work
[4] = tested on: MCF-7 cells; test: MCF-7 cell proliferation (MTT); type: cell-based, human; settings: for activation at 1 µM: Homo sapiens, MCF7, 72 h, read-out: Induction of cell proliferation (MCF-7 cells) Agonism at 1μΜ (% of 0.1nM E2); for Induction of cell proliferation (MCF-7 cells) Agonism at 1μΜ, class: compounds 1 μM, 72 h
Protocol: Test compound effects on the proliferation of MCF-7 and MDA-MB-231 cells were assessed as previously described.

[5] = molecular target: T2, ERα; test: ERE-dependent luciferase gene transcription in MCF-7:D5L cells; type: cell-based; set-up: MCF-7:D5L cells, a clone of MCF-7 cells stably transfected with an Estrogen Response Element (ERE)-endowed reporter plasmid; endogenous in cells; host or cells: MCF-7:D5L (MCF-7 clone carrying pERE-Gl-Luciferase); settings: for Induction of ERE-dependent Luciferase Transcription (MCF-7:D5L cells) AUC (%): % of AUC of luciferase response of archetypal 3, 4, 5 or 8 up to 0.3, 10, 1.0 and 3.0 μM; for Induction of luciferase gene transcription through ERα, MCF-7:D5L cells, Agonism at 1μΜ (% of 0.1nM E2) / Induction of luciferase gene transcription, MCF-7:D5L cells, Agonism at 1μΜ, class: compounds 1 μM, 18 h; for Induction of luciferase gene transcription through ERα, MCF-7:D5L cells, Agonism at 1μΜ (% of 0.1nM E2): estradiol 0.1 nM; for Induction of ERE-dependent Luciferase Transcription (MCF-7:D5L cells) EC25E2: concentration required to achieve 25% of the effect of 0.1 nM E2; for EC50: concentration required to achieve 50% of the effect of 0.1 nM E2, read-out: Induction of ERE-dependent Luciferase Transcription (MCF-7:D5L cells) EC50E2
Protocol: as §1

[6] = tested on: Ishikawa cells; test: Induction of AlkP expression in Ishikawa cells; type: cell-based, human; settings: for Induction of Alkaline Phosphatase Expression (Ishikawa cells) AUC (%): % of AUC of luciferase response of archetypal 3, 4, 5 or 8 up to 0.3, 10, 1.0 and 3.0 μM; for Ratio of AUC (AlkP / Lucif): AUCAlkP / AUCluciferase; for EC (25% of 0.1 nM E2 effect) / activation at 1 µM / EC50: Homo sapiens, Ishikawa; for EC (25% of 0.1 nM E2 effect) / activation at 1 µM / Induction of AlkP expression (Ishikawa cells) Agonism at 1μΜ, class: 72 h; for EC (25% of 0.1 nM E2 effect): concentration required to achieve 25% of the effect of 0.1 nM E2, read-out: Induction of Alkaline Phosphatase Expression (Ishikawa cells) EC25E2; for activation at 1 µM: read-out: Induction of AlkP expression (Ishikawa cells) Agonism at 1μΜ (% of 0.1nM E2); for EC50: concentration required to achieve 50% of the effect of 0.1 nM E2, read-out: Induction of Alkaline Phosphatase Expression (Ishikawa cells) EC50E2; for Induction of AlkP expression (Ishikawa cells) Agonism at 1μΜ, class: compounds 1 μM
Protocol: Induction of AlkP expression of Ishikawa cells is considered as a reliable in vitro measure of estrogenic activity. Assessment of AlkP expression in Ishikawa cells was carried as already described. Briefly, the cells were plated in 96-well plates at a density of 12,000 cells per well in phenol-red-free MEM supplemented with 1 μg/mL insulin and 5% DCC-FBS. […] Data on the dependence of AlkP activity on isoflavonoid concentration were curve fitted using SigmaPlot10 (SPSS Inc) and the numerical data of curve fitting were used to determine AUC as described above, using for the calculation of AUC of a particular AlkP response the very same concentration used for the respective luciferase response. The AUC of AlkP responses of the isoflavonoids of a group were expressed as % of the AUC of the luciferase response of the respective archetypal isoflavone.

[7] = molecular target: T1, ERβ; test: ER binding competitor assay (fluorescent estrogen ES2), ERβ; set-up: purchased Invitrogen; settings: for RBAβ / RBAα: ERβ-binding selectivity; for RBAβ: RBA = (IC50 estradiol/IC50 compound) × 100, ES2 1 nM, estradiol set equal to 100
[8] = molecular target: T2, ERα; test: ER binding competitor assay (fluorescent estrogen ES2), ERα; set-up: purchased Invitrogen; settings: RBA = (IC50 estradiol/IC50 compound) × 100; ES2 1 nM; estradiol set equal to 100
[9] = tested on: TNFα mRNA; settings: 1–10 μM, ER-independent; cited from earlier work
[10] = isoflavonoids 1 μM, statistically significant effects

T1 sequence (Q92731 whole entry): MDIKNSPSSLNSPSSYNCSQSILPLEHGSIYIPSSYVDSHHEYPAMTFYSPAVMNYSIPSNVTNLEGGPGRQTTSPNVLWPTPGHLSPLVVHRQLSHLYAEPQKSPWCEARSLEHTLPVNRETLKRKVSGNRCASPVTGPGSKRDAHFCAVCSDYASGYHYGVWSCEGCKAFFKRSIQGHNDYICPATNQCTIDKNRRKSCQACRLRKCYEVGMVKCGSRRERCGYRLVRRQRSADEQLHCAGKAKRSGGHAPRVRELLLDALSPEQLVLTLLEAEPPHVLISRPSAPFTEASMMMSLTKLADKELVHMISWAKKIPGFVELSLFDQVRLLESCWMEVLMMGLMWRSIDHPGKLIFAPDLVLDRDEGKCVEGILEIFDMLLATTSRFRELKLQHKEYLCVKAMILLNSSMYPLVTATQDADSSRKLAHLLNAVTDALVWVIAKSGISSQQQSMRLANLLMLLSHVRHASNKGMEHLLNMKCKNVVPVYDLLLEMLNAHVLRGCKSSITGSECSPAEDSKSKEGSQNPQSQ

SMILES	activation at 1 µM ([1]; 18 h)	ERβ-dependent gene transcription agonist effect compared to the effect of 0.1 nM estradiol [1]	mean value (and the range) of previously reported RBAα [2]	mean value (and the range) of previously reported RBAβ [3]	activation at 1 µM [4]	Induction of ERE-dependent Luciferase Transcription (MCF-7:D5L cells) AUC (%) [5]	Induction of luciferase gene transcription through ERα, MCF-7:D5L cells, Agonism at 1μΜ (% of 0.1nM E2) [5]	Induction of ERE-dependent Luciferase Transcription (MCF-7:D5L cells) EC25E2 [5]	EC50 [5]	Induction of Alkaline Phosphatase Expression (Ishikawa cells) AUC (%) [6]	Ratio of AUC (AlkP / Lucif) [6]	EC (25% of 0.1 nM E2 effect) [6]	activation at 1 µM [6]	EC50 [6]	Induction of cell proliferation (MCF-7 cells) Agonism at 1μΜ, class [4]	Induction of luciferase gene transcription, MCF-7:D5L cells, Agonism at 1μΜ, class [5]	AlkP response lower than ERα-transcriptional response (relative AUC ratios) [6]	RBAβ / RBAα [7]	RBAβ [7]	RBAα [8]	also measured
COc1ccc(-c2coc3cc(O)cc(O)c3c2=O)cc1 [Compound 1, Biochanin A]	31 ± 15%	lower than	0.18 (0.02–0.34)	0.69 (0.18–1.20)	70 ± 10%	33±8 %	83 ± 16 (Full) % of 0.1nM E2	160 ± 90 nM	300 ± 30 nM	26±2 %	0.79±0.04	0.19 ± 0.01 µM	53 ± 9%	420 ± 30 nM	–	–	–	–	–	–	RBAβ / RBAα ([3]; ERβ-binding selectivity, ref 51 (Fokialakis et al.)): 3.83; AlkP-inducing agonist effect compared to the effect of 0.1 nM estradiol [6, 10]: lower than; selectivity for ERβ (class of RBAβ/RBAα) [7]: moderate (3–10)
O=c1c(-c2ccc(O)cc2)coc2cc(O)ccc12 [Compound 5, daidzein]	–	–	0.20 (0.01–0.55)	0.65 (0.04–2.11)	59 ± 7%	100±13%	50 ± 12 (Partial) ^* % of 0.1nM E2	380 ± 70 nM	–	104±19%	–	0.46 ± 0.05 µM	54 ± 4%	1300 ± 150 nM	–	–	–	–	–	–	Induction of luciferase gene transcription through ERβ, HEK:ERβ cells, Agonism at 1μΜ (% of 0.1nM E2) ([1]; compounds 1 μM, estradiol 0.1 nM, 18 h): 84 ± 8 (Full) % of 0.1nM E2; RBAβ ([3]; estradiol = 100, ref 27 (Halabalaki et al.)): 0.36 ± 0.09; ERα-dependent gene transcription agonist effect compared to the effect of 0.1 nM estradiol [5, 10]: lower than
COc1cc(O)cc2occ(-c3ccc(O)c(O)c3)c(=O)c12 [Compound 7, 5-O-methylorobol]	13 ± 4%	lower than	–	–	–	103±9%	–	5350 ± 610 nM	9500 ± 1570 nM	76±15%	0.74±0.13	7.08 ± 0.45 µM	–	11800 ± 2500 nM	Marginal (⩽10%)	Marginal (⩽10%)	~ 30%	1.15	0.15 ± 0.04	0.13 ± 0.04	Induction of AlkP expression (Ishikawa cells) Agonism at 1μΜ, class [6]: Marginal (⩽10%)
O=c1c(-c2ccc(O)c(O)c2)coc2c(C3OC(CO)C(O)C(O)C3O)c(O)cc(O)c12 (centres unmarked) [Compound 9, 8-C-glucopyranosyl-orobol]	–	–	–	–	–	1.6±0.3 %	–	>30000 nM	> 30000 nM	1.1±0.1 %	0.69±0.07	> 30 µM	–	> 30000 nM	Marginal (⩽10%)	Marginal (⩽10%)	~ 30%	0.45	0.05 ± 0.01	0.11 ± 0.03	Induction of luciferase gene transcription, HEK:ERβ cells, Agonism at 1μΜ, class ([1]; compounds 1 μM, 18 h): Marginal (⩽10%); Induction of AlkP expression (Ishikawa cells) Agonism at 1μΜ, class [6]: Marginal (⩽10%)
COc1cc(-c2coc3c(C4OC(CO)C(O)C(O)C4O)c(O)cc(O)c3c2=O)ccc1O (centres unmarked) [Compound 13, 8-C-glucopyranosyl-3΄-O-methylorobol]	–	–	–	–	–	77±17%	–	2200 ± 180 nM	3420 ± 910 nM	61±11%	0.79±0.13	1.01 ± 0.27 µM	15 ± 4%	2340 ± 650 nM	Marginal (⩽10%)	Marginal (⩽10%)	~ 30%	1.00	0.12 ± 0.04	0.12 ± 0.05	Induction of luciferase gene transcription, HEK:ERβ cells, Agonism at 1μΜ, class ([1]; compounds 1 μM, 18 h): Marginal (⩽10%)
Oc1ccc(C2COc3cc(O)ccc3C2)cc1 (centres unmarked) [equol, 4',7-isoflavandiol]	–	–	–	–	–	–	–	–	–	–	–	–	–	–	–	–	–	–	–	–	suppression of LPS-induced TNFα mRNA expression and cytokine release [9]: dose-dependent suppression
